Measurements from PMC8872768, “Discovery of ultrafast myosin, its amino acid sequence, and structural features” (Proceedings of the National Academy of Sciences of the …, 2022).

What was measured:
[1] = target: T1, CbXI-2 MD (Chara braunii, UniProt A0A388M2Q8); assay: actin-activated Mg2+-ATPase, phosphate release; type: biochemical; conditions: 2 mM ATP, F-actin 0.125-4 mg/mL, 25 mM KCl, 4 mM MgCl2, pH 7.4, 25 C
T1 construct: gene CBR_g48390; motor domain only, no IQ motifs; baculovirus / insect cells

[2] = target: T2, CbXI-3 MD (Chara braunii, UniProt A0A388L5N7); assay: actin-activated Mg2+-ATPase, phosphate release; type: biochemical; conditions: 2 mM ATP, F-actin 0.125-4 mg/mL, 25 mM KCl, 4 mM MgCl2, pH 7.4, 25 C
T2 construct: gene CBR_g24025; motor domain only, no IQ motifs; baculovirus / insect cells
T2 sequence (A0A388L5N7 1-740 limits assumed): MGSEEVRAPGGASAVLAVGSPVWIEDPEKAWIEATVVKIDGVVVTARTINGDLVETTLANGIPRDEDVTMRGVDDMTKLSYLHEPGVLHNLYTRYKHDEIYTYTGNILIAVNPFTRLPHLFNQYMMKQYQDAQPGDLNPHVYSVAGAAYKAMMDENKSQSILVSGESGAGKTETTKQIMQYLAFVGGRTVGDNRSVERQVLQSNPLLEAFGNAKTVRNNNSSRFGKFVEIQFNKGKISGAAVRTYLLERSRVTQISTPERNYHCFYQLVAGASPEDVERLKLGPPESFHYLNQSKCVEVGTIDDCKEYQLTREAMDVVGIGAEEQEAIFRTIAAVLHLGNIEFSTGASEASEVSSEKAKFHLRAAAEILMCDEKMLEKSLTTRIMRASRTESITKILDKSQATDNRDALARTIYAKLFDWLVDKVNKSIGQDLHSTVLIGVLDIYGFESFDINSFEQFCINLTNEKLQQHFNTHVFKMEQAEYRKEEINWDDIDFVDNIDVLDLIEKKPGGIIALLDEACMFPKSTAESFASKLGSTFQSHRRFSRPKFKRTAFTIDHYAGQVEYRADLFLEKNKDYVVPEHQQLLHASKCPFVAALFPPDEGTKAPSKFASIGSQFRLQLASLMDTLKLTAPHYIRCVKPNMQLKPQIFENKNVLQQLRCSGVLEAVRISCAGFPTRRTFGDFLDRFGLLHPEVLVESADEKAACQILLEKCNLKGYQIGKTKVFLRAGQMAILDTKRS

T1 sequence (A0A388M2Q8 1-744 limits assumed): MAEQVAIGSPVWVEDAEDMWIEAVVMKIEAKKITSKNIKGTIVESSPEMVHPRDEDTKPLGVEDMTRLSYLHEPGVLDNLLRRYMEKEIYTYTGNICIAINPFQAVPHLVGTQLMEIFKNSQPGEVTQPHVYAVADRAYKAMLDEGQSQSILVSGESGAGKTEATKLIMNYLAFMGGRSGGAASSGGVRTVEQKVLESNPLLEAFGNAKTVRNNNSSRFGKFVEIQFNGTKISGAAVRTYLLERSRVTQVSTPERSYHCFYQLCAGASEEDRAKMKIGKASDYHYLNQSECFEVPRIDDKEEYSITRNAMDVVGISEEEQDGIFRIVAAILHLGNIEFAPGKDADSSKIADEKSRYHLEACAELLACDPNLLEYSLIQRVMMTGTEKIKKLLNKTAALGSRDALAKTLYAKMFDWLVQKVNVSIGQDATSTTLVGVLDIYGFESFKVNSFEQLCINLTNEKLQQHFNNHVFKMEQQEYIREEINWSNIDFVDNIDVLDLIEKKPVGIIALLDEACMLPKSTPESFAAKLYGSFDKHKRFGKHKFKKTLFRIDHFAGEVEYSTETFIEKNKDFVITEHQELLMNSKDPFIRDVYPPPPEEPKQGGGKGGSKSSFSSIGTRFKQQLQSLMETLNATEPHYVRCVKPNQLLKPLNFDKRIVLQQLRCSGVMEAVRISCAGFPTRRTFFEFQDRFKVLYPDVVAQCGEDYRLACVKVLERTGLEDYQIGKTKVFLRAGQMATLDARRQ

Nc1ncnc2c1ncn2[C@@H]1O[C@H](COP(=O)(O)OP(=O)(O)OP(=O)(O)O)[C@@H](O)[C@H]1O [ATP]
actin-activated Mg2+-ATPase, phosphate release [1]: The ATPase activities of CbXI-1, CbXI-2, CbXI-3, and CbXI-4 MDs were plotted
actin-activated Mg2+-ATPase, phosphate release [2]: The ATPase activities of CbXI-1, CbXI-2, CbXI-3, and CbXI-4 MDs were plotted
